Test results reported in publication PMC12264121 (Scientific Reports, 2025).

Legend:
Format in all cases: biochemical
[1] = target: T1, hCA-IX (Homo sapiens, UniProt Q16790); experiment: biochemical
[2] = target: T2, hCA-XII (Homo sapiens, UniProt O43570); experiment: Carbonic anhydrase inhibition assay
[3] = target: T3, hCA-II (Homo sapiens, UniProt P00918); experiment: Carbonic anhydrase inhibition assay
[4] = target: T3, hCA-II; experiment: Enzyme kinetics; details: CA-II; substrate 0-900 µM; inhibitor 0, 0.2, 0.4, 0.6 µM
[5] = target: T1, hCA-IX; experiment: Enzyme kinetics; details: CA-IX; substrate 0-900 µM; inhibitor 0, 0.1, 0.2, 0.3 µM
[6] = target: T2, hCA-XII; experiment: Enzyme kinetics; details: CA-XII; substrate 0-900 µM; inhibitor 0, 0.4, 0.6, 0.8 µM

T2 sequence (O43570 25-354): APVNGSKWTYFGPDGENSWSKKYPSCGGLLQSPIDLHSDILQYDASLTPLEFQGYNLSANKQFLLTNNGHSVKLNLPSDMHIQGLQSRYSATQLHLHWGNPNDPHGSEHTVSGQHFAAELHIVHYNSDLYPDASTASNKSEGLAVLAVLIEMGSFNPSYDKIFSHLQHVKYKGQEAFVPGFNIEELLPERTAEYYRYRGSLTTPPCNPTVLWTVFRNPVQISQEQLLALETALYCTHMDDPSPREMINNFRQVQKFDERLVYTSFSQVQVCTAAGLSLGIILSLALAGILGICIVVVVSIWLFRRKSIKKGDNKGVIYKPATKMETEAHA

| SMILES | inhibition of hCA-XII in words [2] | IC50 [1] | IC50 [2] | IC50 [3] | further results |
| --- | --- | --- | --- | --- | --- |
| Cc1cc(C)cc(Nc2ccc(-c3ccc(S(N)(=O)=O)cc3)cc2)c1 [Compound 9c, 4’-((3,5-dimethylphenyl)amino)-[1,1’-biphenyl]−4-sulfonamide] | inactive |  |  |  | inhibition of hCA-IX in words [1]: inactive; inhibition of hCA-II in words [3]: inactive |
| NS(=O)(=O)c1ccc(-c2ccc(Nc3ccc(F)c(Cl)c3)cc2)cc1 [Compound 9e, 4’-((3-chloro-4-fluorophenyl)amino)-[1,1’-biphenyl]−4-sulfonamide] | moderate inhibition | 3430 ± 150 nM |  |  | Mode of Enzyme Inhibition [4]: Competitive |
| NS(=O)(=O)c1ccc(-c2ccc(Nc3ccc(Cl)cc3)cc2)cc1 [Compound 9a, 4’-((4-chlorophenyl)amino)-[1,1’-biphenyl]−4-sulfonamide] |  | 2790 ± 20 nM | 1050 ± 100 nM |  |  |
| NS(=O)(=O)c1ccc(-c2ccc(Nc3ccncc3)cc2)cc1 [Compound 9d, 4’-(pyridin-4-ylamino)-[1,1’-biphenyl]−4-sulfonamide] |  |  |  | 1010 ± 100 nM | Mode of Enzyme Inhibition [5]: Uncompetitive; inhibitor potential as compared to standard inhibitor acetazolamide ([1]; hCA-IX): 8 fold |
| COC(=O)c1ccc(Nc2ccc(-c3ccc(S(N)(=O)=O)cc3)cc2)cc1 [Compound 9b, Methyl 4-((4’-sulfamoyl-[1,1’-biphenyl]−4-yl)amino)benzoate] |  | 1460 ± 80 nM | 690 ± 150 nM | 1030 ± 100 nM | Mode of Enzyme Inhibition [6]: Competitive |
